Residue numbers refer to the chain shown, from its start.
What was measured:
[1] = biological target: T1, E2C hDAT (C90A/C306A hDAT) (Homo sapiens, UniProt Q01959, C306A/C90A); assay: MTSET assay, [3H]DA uptake in HEK293 cells; format: cell-based
T1 construct: expressed in transfected cells; host or cells: HEK293 cells, transient, pcDNA3.1+
T1 sequence (Q01959 1-620 C90A/C306A): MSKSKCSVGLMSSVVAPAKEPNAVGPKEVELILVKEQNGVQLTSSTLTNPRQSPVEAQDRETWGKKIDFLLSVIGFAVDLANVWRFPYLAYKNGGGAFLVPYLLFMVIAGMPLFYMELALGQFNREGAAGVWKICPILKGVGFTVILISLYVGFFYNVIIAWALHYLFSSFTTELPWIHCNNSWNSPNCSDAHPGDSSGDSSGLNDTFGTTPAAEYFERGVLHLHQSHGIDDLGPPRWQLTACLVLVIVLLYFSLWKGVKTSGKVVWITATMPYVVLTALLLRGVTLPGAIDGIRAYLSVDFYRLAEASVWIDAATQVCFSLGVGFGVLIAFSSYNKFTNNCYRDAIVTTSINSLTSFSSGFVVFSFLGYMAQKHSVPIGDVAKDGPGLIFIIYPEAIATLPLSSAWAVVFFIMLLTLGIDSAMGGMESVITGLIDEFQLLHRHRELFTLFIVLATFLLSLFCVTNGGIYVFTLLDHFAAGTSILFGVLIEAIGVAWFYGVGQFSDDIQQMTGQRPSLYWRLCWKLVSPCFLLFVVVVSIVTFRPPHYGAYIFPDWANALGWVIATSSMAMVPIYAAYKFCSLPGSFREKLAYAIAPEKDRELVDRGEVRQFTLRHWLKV
Text: (§1) All mutants on hDAT were generated based on the predictions made using our computational model, as described previously using site-directed mutagenesis based on the wild-type hDAT (WT hDAT) sequence (NCBI, cDNA clone MGC: 164,608 IMAGE: 40,146,999) (Quizon et al. [2016]). The combination of hDAT mutations on Asp206 and His547 (Aspartic acid 206 to leucine and histidine 547 to alanine, D206L/H547A) were predicted to eliminate two hydrogen bonds between Tat and hDAT. In addition, the combination of mutations on Tyr88, Asp206, and His547 (tyrosine88 to phenylalanine and aspartic acid 206 to leucine and histidine 547 to alanine, Y88F/D206L/H547A) were predicted to eliminate three hydrogen bonds from the Tat-hDAT complex. Two extracellular cysteine90 and cysteine306 residues on WT hDAT were mutated to alanine as E2C hDAT (C90A/C306A hDAT), rendering the E2C hDAT MTSET-insensitive background (Pedersen et al. [2014]). A triple mutation of the two cysteine90 and 306 residues to alanine and […] to cysteine on WT hDAT was generated as E2C-I159C hDAT (C90A/C306A/I159C) for MTSET-sensitive construct. A combination of C90A/C306A/H547A was generated as E2C/H547A hDAT for MTSET-insensitive control for H547A. To determine whether H547A-enhanced DA transport is mediated by changing transporter conformation, two combinations of C90A/C306A/I159C/H547A and C90A/C306A/I159A/H547A were generated as E2C-I159C/H547A and E2C-I159A/H547A for positive and negative controls for MTSET sensitive background, respectively. Synthetic cDNA encoding hDAT subcloned into pcDNA3.1+ (provided by Dr. Haley E Melikian, University of Massachusetts) was used as a template to generate mutants using site-directed mutagenesis performed by GENEWIZ (South Plainfield, NJ). DNA sequencing was also performed by GENEWIZ to confirm the sequences of the mutant constructs. Plasmid DNA were propagated and purified using the Qiagen Hi-speed maxi prep plasmid DNA isolation kit (Qiagen, Valencia, CA, USA).
(§2) This assay was performed based on the previous report with minor modifications (Loland et al. [2004], [2008]). First, we generated five WT hDAT based plasmid construct for MTSET-insensitive or sensitive background as we described above. HEK293 cells were grown in poly-d-lysine coated plates at a density of 1 × 10^5 cells/cm^2 were transfected with different E2C- associated hDAT background constructs: E2C hDAT, E2C-I159C hDAT, E2C/H547A hDAT, E2C-I159C/H547A or E2C-I159A/H547A. Twenty-four hours after the transfection, cells were washed twice with 1× KRH buffer, and preincubated with or without the presence of 10 µM nomifensine (for non-specific uptake) and MTSET for 10 min at room temperature. MTSET at 1 mM final concentration was chosen based on a pilot study on optimizing MTSET concentrations (0.1, 0.5 or 1.0 mM). […] Because MTSET is easily hydrolyzed in solution, the amount needed for a 10 × stock was weighed out and dissolved in 1 × KRH buffer just right before adding to the assigned wells, for a 10-fold dilution (final concentration of 1 mM in final volume of 250 µl). […] Cells were immediately washed twice with ice-cold 1 × KRH buffer to terminate the reaction and were lysed rapidly with the addition of 1 % SDS. Cell lysates were collected after incubation for 1 h at room temperature and radioactivity was determined the next day.

[2] = biological target: T2, E2C/H547A hDAT (C90A/C306A/H547A) (Homo sapiens, UniProt Q01959, C306A/C90A/H547A); assay: MTSET assay, [3H]DA uptake in HEK293 cells; format: cell-based; conditions: 1 mM MTSET, HEK293, Fig. 8b
T2 construct: expressed in transfected cells; host or cells: HEK293 cells, transient, pcDNA3.1+
T2 sequence (Q01959 1-620 C90A/C306A/H547A): T1 sequence (Q01959 1-620 C90A/C306A) with H547A
Text: as §1, §2

[3] = E2C, 1 mM MTSET, HEK293, Fig. 8b

C[N+](C)(C)CCSS(C)(=O)=O [MTSET, [2-(trimethylammonium)ethyl]-methanethiosulfonate]
[3H]DA uptake in the presence of MTSET [1, 3]: 86.5 ± 6.0 | effect of MTSET on DA uptake [1, 3]: no effect | effect on [3H]DA uptake ([1]; E2C-hDAT, MTSET 0.1, 0.5, 1.0 mM, pilot study Fig. 8a): no effect | effect of MTSET on DA uptake [2]: no effect
